# Source: EPA's ToxValDB 9.5 (doi:10.2903/j.efsa.2009.205r)
# How the values were obtained:
# [1] = tested on: Typhlodromus pyri; assay: LR50; higher = less toxic; conditions: not reported; mortality
# [2] = tested on: Colinus virginianus
# [3] = tested on: Rattus norvegicus
# [4] = tested on: Anas platyrhynchos
# [5] = tested on: Apis mellifera; conditions: acute, mortality
# [6] = tested on: Tagia sp.; conditions: for LC50: acute, duration: 14 days, mortality
# [7] = tested on: Oncorhynchus mykiss
# [8] = tested on: Landoltia sp.; conditions: chronic/long-term; duration: 14 days
# [9] = tested on: Daphnia magna; conditions: chronic/long-term; duration: 21 days; reproduction
# [10] = tested on: Plant; conditions: chronic/long-term; duration: 14 days
# [11] = tested on: Bibionidae; conditions: chronic/long-term; duration: 28 days
structure (smiles),measurement,setting,value
C[C@@H](Oc1ccc(Oc2cnc3cc(Cl)ccc3n2)cc1)C(=O)OCC1CCCO1 (stereo partly drawn) [Quizalofop P tefuryl],LR50,[1],< 100 g/ha
same,LC50,"[2]; acute, oral, diet, mortality",> 487 mg/kg-day
same,LD50,"[2]; acute, oral, mortality",> 2150 mg/kg
same,NOEC,[2]; reproduction developmental,69.4 mg/kg-day
same,LD50,"[3]; acute, oral, mortality",1010 mg/kg-day
same,NOAEL,"[3]; chronic, duration: 2 years, oral, diet",1.3 mg/kg-day
same,NOAEL,"[3]; reproduction developmental, mortality",10 mg/kg-day
same,NOAEL,"[3]; reproduction developmental, reproduction",16.9 mg/kg-day
same,NOAEL,"[3]; subchronic, duration: 90 days, oral, organ weight",1.7 mg/kg-day
same,LD50,"[4]; acute, oral, unspecified, mortality",> 2150 mg/kg
same,NOEC,[4]; reproductive,68.7 mg/kg-day
same,LC50,"[4]; short-term, oral, feed, mortality",> 259 mg/kg-day
same,LD50,[5]; dermal,> 100 µg/piece
same,LD50,"[5]; oral, unspecified",16.8 µg/piece
same,LC50,[6],16.9 mg/kg
CC(Oc1ccc(Oc2cnc3cc(Cl)ccc3n2)cc1)C(=O)O (stereo not drawn) [Quizalofop],LC50,"[7]; acute, duration: 96 hours, mortality",> 100 µg/mL
same,NOEC,"[7]; chronic/long-term, duration: 28 days, growth",46.2 mg/L
same,NOEC,[8],3.2 mg/L
same,NOEC,[9],0.82 mg/L
same,NOEC,[10],0.094 mg/L
same,NOEC,[11],35.7 mg/L
same,LC50,[6],948 mg/kg
same,NOEC,[6]; chronic/long-term,> 50 mg/kg
